This note sets out measurements from patent publication US20250230171A1 (MOMA Therapeutics, Inc., priority 2023, published 2025).

Like-named read-outs stand apart in the source and are kept apart here.

One test deals with DLD1 BRCA2 (−/−) cells. In words: 7-day cell viability assay (CellTiter-Glo), DLD1 BRCA2 (−/−). To be noted: 7-day viability, n=2, read-out: Viability IC50 (uM) DLD1 BRCA2 null. It is filed as cell-based, human. In a few lines:
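7-day growth assay in DLD1 cells with or without BRCA2; seeding densities chosen to keep log-linear growth. Compound: 10 uM top, 3-fold, 9 points. Endpoint: CTG ATP luminescence at RT.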
A general note: In ATP-based viability assays light output follows the ATP content of the culture.

In the next test the test system is DLD1 WT cells. The test is described as follows: 7-day cell viability assay (CellTiter-Glo), DLD1 parental (WT). It is filed as cell-based, human. To be noted: 7-day viability, n=2.
Test [1] has as its target biotinylated Avi-POLθ[2-894] (Homo sapiens (Human), UniProt O75417). The test is described as follows: POLθ ATPase assay (ADP-Glo). Conditions: n=2; read-out: Biochemical ATPase ADPGlo IC50. A general note: ADP-Glo turns the ADP formed in a reaction into a luminescent signal.

Chain of biotinylated Avi-POLθ[2-894] (O75417 2-894): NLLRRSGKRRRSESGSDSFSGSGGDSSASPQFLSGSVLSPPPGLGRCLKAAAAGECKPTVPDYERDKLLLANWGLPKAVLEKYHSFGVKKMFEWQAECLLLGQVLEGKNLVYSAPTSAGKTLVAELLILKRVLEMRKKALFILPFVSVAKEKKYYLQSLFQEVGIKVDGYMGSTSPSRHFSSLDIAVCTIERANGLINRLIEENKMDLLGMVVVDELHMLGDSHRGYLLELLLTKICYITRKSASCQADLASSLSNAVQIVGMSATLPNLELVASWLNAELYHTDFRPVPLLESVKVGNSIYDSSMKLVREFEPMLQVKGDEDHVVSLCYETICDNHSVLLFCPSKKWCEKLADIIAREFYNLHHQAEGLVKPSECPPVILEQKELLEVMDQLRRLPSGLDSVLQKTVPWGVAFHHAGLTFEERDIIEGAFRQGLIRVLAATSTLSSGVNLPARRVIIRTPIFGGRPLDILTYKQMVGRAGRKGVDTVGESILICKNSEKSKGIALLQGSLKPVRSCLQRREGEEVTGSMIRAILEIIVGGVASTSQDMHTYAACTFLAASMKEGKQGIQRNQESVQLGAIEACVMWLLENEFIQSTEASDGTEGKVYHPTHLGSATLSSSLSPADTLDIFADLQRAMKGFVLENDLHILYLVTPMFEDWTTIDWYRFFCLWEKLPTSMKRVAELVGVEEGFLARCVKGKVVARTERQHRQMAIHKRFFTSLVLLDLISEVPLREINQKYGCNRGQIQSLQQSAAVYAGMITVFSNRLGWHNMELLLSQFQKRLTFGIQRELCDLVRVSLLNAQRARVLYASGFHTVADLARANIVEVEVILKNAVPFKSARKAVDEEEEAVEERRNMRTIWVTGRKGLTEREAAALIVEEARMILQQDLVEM

As to `COc1cnc(Cl)cc1-c1cc(C)ncc1C(=O)Nc1nc2c(s1)CN(C(=O)c1ccc(OC(F)F)cn1)C2` [Example 93, 2′-chloro-N-(5-(5-(difluoromethoxy)picolinoyl)-5,6-dihydro-4H-pyrrolo[3,4-d]thiazol-2-yl)-5′-methoxy-6-methyl-[4,4′-bipyridine]-3-carboxamide], the IC50 (usually the point on the concentration scale where inhibition reaches its midpoint) in the test with DLD1 BRCA2 (−/−) cells (Homo sapiens, DLD-1, 168 h) lay in the range of 0.001 to 0.1 µM; with DLD1 WT cells (Homo sapiens, DLD-1, 168 h), 0.001 to 0.5 µM; in test [1] it was 1 to 15 nM.

As for `COc1cnc(Cl)cc1-c1cc(C)ncc1C(=O)Nc1nc2c(s1)CN(C(=O)c1cc(C(F)F)ccn1)C2` [Example 94, 2′-chloro-N-(5-(4-(difluoromethyl)picolinoyl)-5,6-dihydro-4H-pyrrolo[3,4-d]thiazol-2-yl)-5′-methoxy-6-methyl-[4,4′-bipyridine]-3-carboxamide], the 50% inhibitory concentration (IC50) in the test on DLD1 BRCA2 (−/−) cells (Homo sapiens, DLD-1, 168 h) was 0.001 to 0.1 µM; in the test on DLD1 WT cells (Homo sapiens, DLD-1, 168 h), at least 10 µM; in test [1], 1 to 15 nM.

Consider `COc1cnc(Cl)cc1-c1cc(C)ncc1C(=O)Nc1nc2c(s1)CN(C(=O)c1cc(C(C)C)n(C)n1)C2` [Example 95, 2′-chloro-N-(5-(5-isopropyl-1-methyl-1H-pyrazole-3-carbonyl)-5,6-dihydro-4H-pyrrolo[3,4-d]thiazol-2-yl)-5′-methoxy-6-methyl-[4,4′-bipyridine]-3-carboxamide], for which the IC50 in the test with DLD1 BRCA2 (−/−) cells (Homo sapiens, DLD-1, 168 h) is 0.001 to 0.1 µM; in the test with DLD1 WT cells (Homo sapiens, DLD-1, 168 h), at least 10 µM; in test [1] it was 1 to 15 nM.

`COc1cn2cncc2cc1-c1cc(C)ncc1C(=O)Nc1nc2c(s1)CN(C(=O)c1ccc(C(F)F)cn1)C2` [Example 117]: the IC50 with DLD1 BRCA2 (−/−) cells (Homo sapiens, DLD-1, 168 h) was 0.001 to 0.1 µM; in the test on DLD1 WT cells (Homo sapiens, DLD-1, 168 h), at least 10 µM; in test [1], 1 to 15 nM.

`COc1ncc(Cl)cc1-c1cc(C)ncc1C(=O)Nc1nc2c(s1)CN(C(=O)c1ccccn1)C2` [Example 118]: the IC50 in the test with DLD1 BRCA2 (−/−) cells (Homo sapiens, DLD-1, 168 h) lay in the range of 0.001 to 0.1 µM; in the test on DLD1 WT cells (Homo sapiens, DLD-1, 168 h) it was 2 to 5 µM; in test [1] it was 1 to 15 nM.

As to `COc1ccc(C(=O)N2Cc3nc(NC(=O)c4cnc(C)cc4-c4cc(Cl)ncc4OC)sc3C2)nc1` [Example 121], the IC50 was 0.001 to 0.1 µM with DLD1 BRCA2 (−/−) cells (Homo sapiens, DLD-1, 168 h); at least 10 µM with DLD1 WT cells (Homo sapiens, DLD-1, 168 h); 1 to 15 nM in test [1].

In the case of `COc1ccc(C#N)cc1-c1cc(C)ncc1C(=O)Nc1nc2c(s1)CN(C(=O)c1ccc(C(F)F)cn1)C2` [Example 122], the IC50 in the test on DLD1 BRCA2 (−/−) cells (Homo sapiens, DLD-1, 168 h) fell in the range of 0.001 to 0.1 µM; with DLD1 WT cells (Homo sapiens, DLD-1, 168 h), 5 to 10 µM; in test [1], 1 to 15 nM.

As to `COc1ccc(C#N)cc1-c1cc(C)ncc1C(=O)Nc1nc2c(s1)CN(C(=O)c1c(Cl)cnn1C)C2` [Example 123], the IC50 in the test on DLD1 BRCA2 (−/−) cells (Homo sapiens, DLD-1, 168 h) is 0.001 to 0.1 µM; in the test with DLD1 WT cells (Homo sapiens, DLD-1, 168 h), at least 10 µM; in test [1], 1 to 15 nM.

For the compound `COc1cnc(Cl)cc1-c1cc(C)ncc1C(=O)Nc1nc2c(s1)CN(C(=O)c1ccc(C(F)(F)F)cn1)C2` [Example 132], the IC50 fell in the range of 0.001 to 0.1 µM in the test with DLD1 BRCA2 (−/−) cells (Homo sapiens, DLD-1, 168 h); 5 to 10 µM in the test with DLD1 WT cells (Homo sapiens, DLD-1, 168 h); 1 to 15 nM in test [1].

In the case of `COc1cnc(Cl)cc1-c1cc(C)ncc1C(=O)Nc1nc2c(s1)CC(Nc1ccc(O)cc1)CC2` (stereo not drawn) [Example 135], the IC50 in the test on DLD1 BRCA2 (−/−) cells (Homo sapiens, DLD-1, 168 h) lay in the range of 0.5 to 2 µM; in the test with DLD1 WT cells (Homo sapiens, DLD-1, 168 h) it was 5 to 10 µM; in test [1], 1 to 15 nM.

Take `COc1cnc(Cl)cc1-c1cc(C)ncc1C(=O)Nc1nc2c(s1)CN(C(=O)C1CC3(CC(OC)C3)C1)C2` (stereo not drawn) [Example 140]: the IC50 in the test with DLD1 BRCA2 (−/−) cells (Homo sapiens, DLD-1, 168 h) fell in the range of 0.001 to 0.1 µM; with DLD1 WT cells (Homo sapiens, DLD-1, 168 h), 5 to 10 µM; in test [1], 1 to 15 nM.

Turning to `COc1cnc(Cl)cc1-c1cc(C)ncc1C(=O)Nc1nc2c(s1)CC(N[C@H]1C[C@H](O)C1)CC2` (stereo partly drawn) [Example 141, 2′-Chloro-N-(6-(((1r,3r)-3-hydroxycyclobutyl)amino)-4,5,6,7-tetrahydrobenzo[d]thiazol-2-yl)-5′-methoxy-6-methyl-[4.4′-bipyridine]-3-carboxamide], the results for the IC50 (in the test on DLD1 BRCA2 (−/−) cells; in the test on DLD1 WT cells; in test [1]) were 0.001 to 0.1 µM, at least 10 µM and 1 to 15 nM, respectively.

As for `COc1cnc(Cl)cc1-c1cc(C)ncc1C(=O)Nc1nc2c(s1)CN(C(=O)c1ncccc1OC(F)F)C2` [Example 145], the IC50 in the test with DLD1 BRCA2 (−/−) cells (Homo sapiens, DLD-1, 168 h) is 0.001 to 0.1 µM; with DLD1 WT cells (Homo sapiens, DLD-1, 168 h) it was at least 10 µM; in test [1], 1 to 15 nM.

As to `COc1cnc(Cl)cc1-c1cc(C)ncc1C(=O)Nc1nc2c(s1)CN(C(=O)c1c(OC)cnn1C)C2` [Example 146], the IC50 was 0.001 to 0.1 µM in the test with DLD1 BRCA2 (−/−) cells (Homo sapiens, DLD-1, 168 h); at least 10 µM with DLD1 WT cells (Homo sapiens, DLD-1, 168 h); 1 to 15 nM in test [1].

Regarding `COc1cnc(Cl)cc1-c1cc(C)ncc1C(=O)Nc1nc2c(s1)CN(C(=O)C1CC3(CC(O)C3)C1)C2` (stereo not drawn) [Example 148], the IC50 with DLD1 BRCA2 (−/−) cells (Homo sapiens, DLD-1, 168 h) is 0.1 to 0.25 µM; in the test on DLD1 WT cells (Homo sapiens, DLD-1, 168 h) it was at least 10 µM; in test [1], 1 to 15 nM.

Turning to `COc1ccncc1C(=O)N1Cc2nc(NC(=O)c3cnc(C)cc3-c3cc(Cl)ncc3OC)sc2C1` [Example 155], the IC50 was 0.5 to 2 µM with DLD1 BRCA2 (−/−) cells (Homo sapiens, DLD-1, 168 h); at least 10 µM in the test with DLD1 WT cells (Homo sapiens, DLD-1, 168 h); 1 to 15 nM in test [1].

Regarding `COc1cnc(Cl)cc1-c1cc(C)ncc1C(=O)Nc1nc2c(s1)CN(C(=O)c1c(Cl)cnn1C)C2` [Example 156], the IC50 is 0.001 to 0.1 µM in the test on DLD1 BRCA2 (−/−) cells (Homo sapiens, DLD-1, 168 h); at least 10 µM in the test on DLD1 WT cells (Homo sapiens, DLD-1, 168 h); 1 to 15 nM in test [1].

As for `COc1cnc(Cl)cc1-c1cc(C)ncc1C(=O)Nc1nc2c(s1)CN(C(=O)c1nn(C)cc1OC)C2` [Example 157], the IC50 in the test on DLD1 BRCA2 (−/−) cells (Homo sapiens, DLD-1, 168 h) was 0.25 to 0.5 µM; in the test on DLD1 WT cells (Homo sapiens, DLD-1, 168 h) it was at least 10 µM; in test [1], 1 to 15 nM.

`COc1cnc(Cl)cc1-c1cc(C)ncc1C(=O)Nc1nc2c(s1)CN(C(=O)c1ncccc1C(F)F)C2` [Example 158]: the IC50 in the test with DLD1 BRCA2 (−/−) cells (Homo sapiens, DLD-1, 168 h) is 0.1 to 0.25 µM; with DLD1 WT cells (Homo sapiens, DLD-1, 168 h) it was at least 10 µM; in test [1] it was 1 to 15 nM.

For `COc1cnc(Cl)cc1-c1cc(C)ncc1C(=O)Nc1nc2c(s1)CN(C(=O)c1ccn(C(F)F)n1)C2` [Example 159], the IC50 was 0.1 to 0.25 µM with DLD1 BRCA2 (−/−) cells (Homo sapiens, DLD-1, 168 h); at least 10 µM with DLD1 WT cells (Homo sapiens, DLD-1, 168 h); 1 to 15 nM in test [1].

For `COc1cnc(Cl)cc1-c1cc(C)ncc1C(=O)Nc1nc2c(s1)CN(C(=O)c1cn(C)nc1Cl)C2` [Example 161], the IC50 in the test with DLD1 BRCA2 (−/−) cells (Homo sapiens, DLD-1, 168 h) is 0.5 to 2 µM; in the test on DLD1 WT cells (Homo sapiens, DLD-1, 168 h) it was at least 10 µM; in test [1], 1 to 15 nM.

`COc1cnc(Cl)cc1-c1cc(C)ncc1C(=O)Nc1nc2c(s1)CN(C(=O)[C@H]1C[C@H](C(F)(F)F)C1)C2` [Example 164, 4-(5-Cyano-2-methoxyphenyl)-6-methyl-N-(5-(pyridin-3-ylsulfonyl)-5,6-dibydro-4H-pyrrolo[3,4-d]thiazol-2-yl)nicotinamide]: the IC50 in the test on DLD1 BRCA2 (−/−) cells (Homo sapiens, DLD-1, 168 h) is 0.1 to 0.25 µM; in the test with DLD1 WT cells (Homo sapiens, DLD-1, 168 h), at least 10 µM; in test [1], 1 to 15 nM.

In the case of `COc1cnccc1C(=O)N1Cc2nc(NC(=O)c3cnc(C)cc3-c3cc(Cl)ncc3OC)sc2C1` [Example 168], the IC50 in the test on DLD1 BRCA2 (−/−) cells (Homo sapiens, DLD-1, 168 h) was 0.1 to 0.25 µM; in the test with DLD1 WT cells (Homo sapiens, DLD-1, 168 h) it was at least 10 µM; in test [1], 1 to 15 nM.

With `COc1cnc(Cl)cc1-c1cc(C)ncc1C(=O)Nc1nc2c(s1)CN(C(=O)c1ncccc1OC)C2` [Example 169], the IC50 in the test with DLD1 BRCA2 (−/−) cells (Homo sapiens, DLD-1, 168 h) was 0.1 to 0.25 µM; in the test on DLD1 WT cells (Homo sapiens, DLD-1, 168 h) it was at least 10 µM; in test [1], 1 to 15 nM.

With `COc1cnc(Cl)cc1-c1cc(C)ncc1C(=O)Nc1nc2c(s1)CN(C(=O)c1ccnn1C)C2` [Example 170], the IC50 with DLD1 BRCA2 (−/−) cells (Homo sapiens, DLD-1, 168 h) was 0.1 to 0.25 µM; in the test on DLD1 WT cells (Homo sapiens, DLD-1, 168 h) it was at least 10 µM; in test [1], 1 to 15 nM.

`COc1cnc(Cl)cc1-c1cc(C)ncc1C(=O)Nc1nc2c(s1)CN(C(=O)[C@H]1C[C@@H](OC)C1)C2` [Example 171]: the IC50 with DLD1 BRCA2 (−/−) cells (Homo sapiens, DLD-1, 168 h) was 0.1 to 0.25 µM; in the test on DLD1 WT cells (Homo sapiens, DLD-1, 168 h), at least 10 µM; in test [1], 1 to 15 nM.

Consider `COc1cnc(Cl)cc1-c1cc(C)ncc1C(=O)Nc1nc2c(s1)CN(C(=O)c1cccnc1OC)C2` [Example 172], for which the IC50 is 0.001 to 0.1 µM in the test on DLD1 BRCA2 (−/−) cells (Homo sapiens, DLD-1, 168 h); at least 10 µM with DLD1 WT cells (Homo sapiens, DLD-1, 168 h); 1 to 15 nM in test [1].
